Data as given in patent US11970493B2, “Autotaxin inhibitor compounds” (ILDONG PHARMACEUTICAL CO., LTD., priority 2020, dated 2024).
Where a name gives a salt, the structure may show the parent alone.

Molecular target: hATX/ENPP2 (Homo sapiens, UniProt Q13822)
Experiment: hATX/ENPP2 biochemical assay using 16:0-LPC as substrate (Amplex Red/choline oxidase/HRP fluorescence)
Settings: hENPP2 2.5 nM, LPC (16:0) substrate
Outline: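 Enzyme preincubated with compounds 15 min at room temperature in 50 mM Tris-HCl pH 8.0, 140 mM NaCl, 5 mM CaCl2, 0.01% Triton X-100. Reaction started with 80 μM LPC (16:0) stock plus Amplex Red/choline oxidase/HRP mix; fluorescence (ex 530/em 590 nm) read kinetically. IC50 from slope between 60 and 70 min.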

IC50 [µM] | SMILES
0.02 to 0.2 | CCc1nc2ccc(-c3cnc(N4CCC(NC5CCC5)CC4)nc3)cn2c1N(C)c1nc(-c2ccc(F)cc2)c(C#N)s1 [Compound 108, 2-((6-(2-(4-(cyclobutylamino)piperidin-1-yl)pyrimidin-5-yl)-2-ethylimidazo[1,2-a]pyridin-3-yl)(methyl)amino)-4-(4-fluorophenyl)thiazole-5-carbonitrile]
≤ 0.02 | CCc1nc2ccc(-c3cnc(N4CCN(CC(=O)N5CC[C@@H](O)C5)CC4)nc3)cn2c1N(C)c1nc(-c2ccc(F)cc2)c(C#N)s1 [Compound 45, (R)-2-((2-ethyl-6-(2-(4-(2-(3-hydroxypyrrolidin-1-yl)-2-oxoethyl)piperazin-1-yl)pyrimidin-5-yl)imidazo[1,2-a]pyridin-3-yl)(methyl)amino)-4-(4-fluorophenyl)thiazole-5-carbonitrile]
0.02 to 0.2 | CCc1nc2ccc(-c3cnc(N4CC(NC(=O)[C@@H]5C[C@@H](O)CN5C)C4)nc3)cn2c1N(C)c1nc(-c2ccc(F)cc2)c(C#N)s1 [81 (hydrochloride salt), (2S,4R)—N-(1-(5-(3-((5-cyano-4-(4-fluorophenyl)thiazol-2-yl)(methyl)amino)-2-ethylimidazo[1,2-a]pyridin-6-yl)pyrimidin-2-yl)azetidin-3-yl)-4-hydroxy-1-methyl pyrrolidine-2-carboxamide hydrochloride]
0.02 to 0.2 | CCc1nc2ccc(-c3cnc(N4CCC(NC5CC5)CC4)nc3)cn2c1N(C)c1nc(-c2ccc(F)cc2)c(C#N)s1 [Compound 107, 2-((6-(2-(4-(cyclopropylamino)piperidin-1-yl)pyrimidin-5-yl)-2-ethylimidazo[1,2-a]pyridin-3-yl)(methyl)amino)-4-(4-fluorophenyl)thiazole-5-carbonitrile]
0.02 to 0.2 | CCc1nc2ccc(-c3ccc(N4CCN(C(=O)C5CCCC5)CC4)nc3)cn2c1N(C)c1nc(-c2ccc(F)cc2)c(C#N)s1 [Compound 112, 2-((6-(6-(4-(cyclopentanecarbonyl)piperazin-1-yl)pyridin-3-yl)-2-ethylimidazo[1,2-a]pyridin-3-yl)(methyl)amino)-4-(4-fluorophenyl)thiazole-5-carbonitrile]
0.02 to 0.2 | CCc1nc2ccc(-c3cnc(CC(N)=O)nc3)cn2c1N(C)c1nc(-c2ccc(F)cc2)c(C#N)s1 [Compound 60, 2-(5-(3-((5-cyano-4-(4-fluorophenyl)thiazol-2-yl)(methyl)amino)-2-ethylimidazo[1,2-a]pyridin-6-yl)pyrimidin-2-yl)acetamide]
0.02 to 0.2 | CCc1nc2ccc(-c3cnc(C(=O)N4CC(N5CCC5)C4)nc3)cn2c1N(C)c1nc(-c2ccc(F)cc2)c(C#N)s1 [Compound 14, 2-((6-(2-([1,3′-biazetidine]-1′-carbonyl)pyrimidin-5-yl)-2-ethylimidazo[1,2-a]pyridin-3-yl)(methyl)amino)-4-(4-fluorophenyl) thiazole-5-carbonitrile]
0.02 to 0.2 | CCc1nc2ccc(-c3cnc(CC(=O)N4CCOCC4)nc3)cn2c1N(C)c1nc(-c2ccc(F)cc2)c(C#N)s1 [Compound 59, 2-((2-ethyl-6-(2-(2-morpholino-2-oxoethyl)pyrimidin-5-yl)imidazo[1,2-a]pyridin-3-yl)(methyl)amino)-4-(4-fluorophenyl)thiazole-5-carbonitrile]
0.02 to 0.2 | CCc1nc2ccc(-c3cnc(C(=O)N4CC(NC5CC5)C4)nc3)cn2c1N(C)c1nc(-c2ccc(F)cc2)c(C#N)s1 [Compound 12, 2-((6-(2-(3-(cyclopropylamino)azetidine-1-carbonyl)pyrimidin-5-yl)-2-ethylimidazo[1,2-a]pyridin-3-yl)(methyl)amino)-4-(4-fluorophenyl)thiazole-5-carbonitrile]
0.02 to 0.2 | CCc1nc2ccc(-c3cnc(NC4CCN(C(=O)C5(O)CC5)CC4)nc3)cn2c1N(C)c1nc(-c2ccc(F)cc2)c(C#N)s1 [Compound 21, 2-((2-ethyl-6-(2-((1-(1-hydroxycyclopropane-1-carbonyl)piperidin-4-yl)amino)pyrimidin-5-yl)imidazo[1,2-a]pyridin-3-yl)(methyl)amino)-4-(4-fluorophenyl) thiazole-5-carbonitrile]
0.02 to 0.2 | CCc1nc2ccc(-c3cnc(CC(=O)N4CC(O)C4)nc3)cn2c1N(C)c1nc(-c2ccc(F)cc2)c(C#N)s1 [Compound 52, 2-((2-ethyl-6-(2-(2-(3-hydroxyazetidin-1-yl)-2-oxoethyl)pyrimidin-5-yl)imidazo[1,2-a]pyridin-3-yl)(methyl)amino)-4-(4-fluorophenyl)thiazole-5-carbonitrile]
≤ 0.02 | CCc1nc2ccc(-c3cnc(N4CCC(NC(=O)[C@@H]5C[C@@H](O)CN5)CC4)nc3)cn2c1N(C)c1nc(-c2ccc(F)cc2)c(C#N)s1 [Compound 77, (2S,4R)—N-(1-(5-(3-((5-cyano-4-(4-fluorophenyl)thiazol-2-yl)(methyl)amino)-2-ethylimidazo[1,2-a]pyridin-6-yl)pyrimidin-2-yl)piperidin-4-yl)-4-hydroxypyrrolidine-2-carboxamide]
0.02 to 0.2 | CCc1nc2ccc(-c3cnc(N4CCC(NC(=O)C5(C#N)CC5)CC4)nc3)cn2c1N(C)c1nc(-c2ccc(F)cc2)c(C#N)s1 [Compound 20, 1-cyano-N-(1-(5-(3-((5-cyano-4-(4-fluorophenyl)thiazol-2-yl)(methyl)amino)-2-ethylimidazo[1,2-a]pyridin-6-yl)pyrimidin-2-yl)piperidin-4-yl) cyclopropane-1-carboxamide]
0.02 to 0.2 | CCc1nc2ccc(-c3cnc(N4CC(NC5(C#N)CC5)C4)nc3)cn2c1N(C)c1nc(-c2ccc(F)cc2)c(C#N)s1 [Compound 28, 2-((6-(2-(3-((1-cyanocyclopropyl)amino)azetidin-1-yl)pyrimidin-5-yl)-2-ethylimidazo[1,2-a]pyridin-3-yl)(methyl)amino)-4-(4-fluorophenyl)thiazole-5-carbonitrile]
0.02 to 0.2 | CCc1nc2ccc(-c3cnc(NC4CN(C(=O)C5(O)CC5)C4)nc3)cn2c1N(C)c1nc(-c2ccc(F)cc2)c(C#N)s1 [Compound 35, 2-((2-ethyl-6-(2-((1-(1-hydroxycyclopropane-1-carbonyl)azetidin-3-yl)amino)pyrimidin-5-yl)imidazo[1,2-a]pyridin-3-yl) (methyl)amino)-4-(4-fluorophenyl)thiazole-5-carbonitrile]
0.02 to 0.2 | CCc1nc2ccc(-c3cnc(N4CCN(C(=O)C5CC5)CC4)nc3)cn2c1N(C)c1nc(-c2ccc(F)cc2)c(C#N)s1 [Compound 110, 2-((6-(2-(4-(cyclopropanecarbonyl)piperazin-1-yl)pyrimidin-5-yl)-2-ethylimidazo[1,2-a]pyridin-3-yl)(methyl)amino)-4-(4-fluorophenyl) thiazole-5-carbonitrile]
0.02 to 0.2 | CCc1nc2ccc(-c3ccc(N4CCN(C(=O)C5CN(C)C5)CC4)nc3)cn2c1N(C)c1nc(-c2ccc(F)cc2)c(C#N)s1 [Compound 86, 2-((2-ethyl-6-(6-(4-(1-methylazetidine-3-carbonyl)piperazin-1-yl)pyridin-3-yl)imidazo[1,2-a]pyridin-3-yl)(methyl)amino)-4-(4-fluorophenyl)thiazole-5-carbonitrile]
> 0.2 | CCc1nc2ccc(-c3cnc(NCC4CN(C(=O)C5CNC5)C4)nc3)cn2c1N(C)c1nc(-c2ccc(F)cc2)c(C#N)s1 [Compound 40, 2-((6-(2-(((1-(azetidine-3-carbonyl)azetidin-3-yl)methyl)amino)pyrimidin-5-yl)-2-ethylimidazo[1,2-a]pyridin-3-yl)(methyl)amino)-4-(4-fluorophenyl)thiazole-5-carbonitrile]
